# Reference: patent US9340590B2 (priority 2011, dated 2016)
# Positions of bridges follow the written chain, without caps; N, C: chain ends. Non-standard residues stand in square brackets, D forms with d. Residues, ends and D or L forms follow the SMILES beside them. NMeW = CN[C@@H](Cc1c[nH]c2ccccc12)C(=O)O; NMeF = CN[C@@H](Cc1ccccc1)C(=O)O; Cha = N[C@@H](CC1CCCCC1)C(=O)O; Phg = N[C@H](C(=O)O)c1ccccc1
# What was measured:
# Experiment in all cases: cell-based
# hNav1.5 = hNav1.5 (Homo sapiens, UniProt Q14524); details: Table 26; IonWorks Quattro, use; […]; read-out: IWQ Use Nav1.5
# Sequence of hNav1.5 (Q14524 whole entry, looked up): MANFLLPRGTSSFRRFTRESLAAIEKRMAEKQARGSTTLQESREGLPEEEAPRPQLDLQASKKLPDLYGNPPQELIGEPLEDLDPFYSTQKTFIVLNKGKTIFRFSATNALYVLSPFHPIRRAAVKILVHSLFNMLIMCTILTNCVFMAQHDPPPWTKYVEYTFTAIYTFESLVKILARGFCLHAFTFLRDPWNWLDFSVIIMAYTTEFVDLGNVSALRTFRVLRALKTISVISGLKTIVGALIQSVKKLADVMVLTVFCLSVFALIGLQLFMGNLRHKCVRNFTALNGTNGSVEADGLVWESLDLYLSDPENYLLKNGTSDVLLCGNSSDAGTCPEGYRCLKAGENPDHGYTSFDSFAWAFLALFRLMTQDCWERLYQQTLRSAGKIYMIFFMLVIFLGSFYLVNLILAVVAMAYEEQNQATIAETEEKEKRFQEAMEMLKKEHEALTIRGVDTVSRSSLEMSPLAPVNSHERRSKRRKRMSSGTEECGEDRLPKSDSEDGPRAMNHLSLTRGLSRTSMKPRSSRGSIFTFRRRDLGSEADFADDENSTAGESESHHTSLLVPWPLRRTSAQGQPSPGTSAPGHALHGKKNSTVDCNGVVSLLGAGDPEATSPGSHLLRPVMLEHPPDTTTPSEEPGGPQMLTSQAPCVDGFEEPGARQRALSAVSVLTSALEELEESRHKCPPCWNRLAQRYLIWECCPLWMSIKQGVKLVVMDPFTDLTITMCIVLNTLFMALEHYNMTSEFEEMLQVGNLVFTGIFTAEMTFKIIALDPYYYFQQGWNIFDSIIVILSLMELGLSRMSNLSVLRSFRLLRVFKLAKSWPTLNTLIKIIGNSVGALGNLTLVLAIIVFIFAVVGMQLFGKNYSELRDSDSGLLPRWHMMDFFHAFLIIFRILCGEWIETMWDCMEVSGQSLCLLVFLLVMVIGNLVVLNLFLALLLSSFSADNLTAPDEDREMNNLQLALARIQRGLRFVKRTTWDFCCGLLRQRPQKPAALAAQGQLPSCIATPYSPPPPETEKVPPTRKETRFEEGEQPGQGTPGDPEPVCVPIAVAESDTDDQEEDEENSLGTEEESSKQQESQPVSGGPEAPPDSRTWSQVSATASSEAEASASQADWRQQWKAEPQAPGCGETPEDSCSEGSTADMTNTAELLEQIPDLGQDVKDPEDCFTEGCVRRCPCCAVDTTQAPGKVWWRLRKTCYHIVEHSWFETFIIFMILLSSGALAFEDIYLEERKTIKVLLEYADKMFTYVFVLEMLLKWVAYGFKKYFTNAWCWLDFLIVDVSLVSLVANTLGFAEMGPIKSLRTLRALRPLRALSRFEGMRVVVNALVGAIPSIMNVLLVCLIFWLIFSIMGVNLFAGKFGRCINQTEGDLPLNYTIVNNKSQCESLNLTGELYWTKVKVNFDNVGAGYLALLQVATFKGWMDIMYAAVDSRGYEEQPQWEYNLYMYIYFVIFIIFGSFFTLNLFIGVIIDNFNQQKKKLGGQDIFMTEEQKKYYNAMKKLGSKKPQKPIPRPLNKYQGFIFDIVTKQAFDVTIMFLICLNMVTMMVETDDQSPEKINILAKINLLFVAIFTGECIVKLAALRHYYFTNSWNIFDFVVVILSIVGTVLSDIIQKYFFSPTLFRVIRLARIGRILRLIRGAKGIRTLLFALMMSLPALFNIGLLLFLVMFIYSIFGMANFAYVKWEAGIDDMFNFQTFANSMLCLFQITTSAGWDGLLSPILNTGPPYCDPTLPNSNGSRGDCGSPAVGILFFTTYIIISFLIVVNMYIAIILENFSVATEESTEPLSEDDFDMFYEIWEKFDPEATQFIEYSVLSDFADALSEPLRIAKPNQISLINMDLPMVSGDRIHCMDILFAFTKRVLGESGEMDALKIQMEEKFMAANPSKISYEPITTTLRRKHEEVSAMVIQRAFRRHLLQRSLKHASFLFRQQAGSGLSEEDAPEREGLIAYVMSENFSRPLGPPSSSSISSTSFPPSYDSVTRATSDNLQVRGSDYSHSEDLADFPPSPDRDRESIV
# hNav1.3 = hNav1.3 (Homo sapiens, UniProt Q9NY46); details: Table 26; IonWorks Quattro, use; […]; read-out: IWQ Use Nav1.3
# Sequence of hNav1.3 (Q9NY46 whole entry, looked up): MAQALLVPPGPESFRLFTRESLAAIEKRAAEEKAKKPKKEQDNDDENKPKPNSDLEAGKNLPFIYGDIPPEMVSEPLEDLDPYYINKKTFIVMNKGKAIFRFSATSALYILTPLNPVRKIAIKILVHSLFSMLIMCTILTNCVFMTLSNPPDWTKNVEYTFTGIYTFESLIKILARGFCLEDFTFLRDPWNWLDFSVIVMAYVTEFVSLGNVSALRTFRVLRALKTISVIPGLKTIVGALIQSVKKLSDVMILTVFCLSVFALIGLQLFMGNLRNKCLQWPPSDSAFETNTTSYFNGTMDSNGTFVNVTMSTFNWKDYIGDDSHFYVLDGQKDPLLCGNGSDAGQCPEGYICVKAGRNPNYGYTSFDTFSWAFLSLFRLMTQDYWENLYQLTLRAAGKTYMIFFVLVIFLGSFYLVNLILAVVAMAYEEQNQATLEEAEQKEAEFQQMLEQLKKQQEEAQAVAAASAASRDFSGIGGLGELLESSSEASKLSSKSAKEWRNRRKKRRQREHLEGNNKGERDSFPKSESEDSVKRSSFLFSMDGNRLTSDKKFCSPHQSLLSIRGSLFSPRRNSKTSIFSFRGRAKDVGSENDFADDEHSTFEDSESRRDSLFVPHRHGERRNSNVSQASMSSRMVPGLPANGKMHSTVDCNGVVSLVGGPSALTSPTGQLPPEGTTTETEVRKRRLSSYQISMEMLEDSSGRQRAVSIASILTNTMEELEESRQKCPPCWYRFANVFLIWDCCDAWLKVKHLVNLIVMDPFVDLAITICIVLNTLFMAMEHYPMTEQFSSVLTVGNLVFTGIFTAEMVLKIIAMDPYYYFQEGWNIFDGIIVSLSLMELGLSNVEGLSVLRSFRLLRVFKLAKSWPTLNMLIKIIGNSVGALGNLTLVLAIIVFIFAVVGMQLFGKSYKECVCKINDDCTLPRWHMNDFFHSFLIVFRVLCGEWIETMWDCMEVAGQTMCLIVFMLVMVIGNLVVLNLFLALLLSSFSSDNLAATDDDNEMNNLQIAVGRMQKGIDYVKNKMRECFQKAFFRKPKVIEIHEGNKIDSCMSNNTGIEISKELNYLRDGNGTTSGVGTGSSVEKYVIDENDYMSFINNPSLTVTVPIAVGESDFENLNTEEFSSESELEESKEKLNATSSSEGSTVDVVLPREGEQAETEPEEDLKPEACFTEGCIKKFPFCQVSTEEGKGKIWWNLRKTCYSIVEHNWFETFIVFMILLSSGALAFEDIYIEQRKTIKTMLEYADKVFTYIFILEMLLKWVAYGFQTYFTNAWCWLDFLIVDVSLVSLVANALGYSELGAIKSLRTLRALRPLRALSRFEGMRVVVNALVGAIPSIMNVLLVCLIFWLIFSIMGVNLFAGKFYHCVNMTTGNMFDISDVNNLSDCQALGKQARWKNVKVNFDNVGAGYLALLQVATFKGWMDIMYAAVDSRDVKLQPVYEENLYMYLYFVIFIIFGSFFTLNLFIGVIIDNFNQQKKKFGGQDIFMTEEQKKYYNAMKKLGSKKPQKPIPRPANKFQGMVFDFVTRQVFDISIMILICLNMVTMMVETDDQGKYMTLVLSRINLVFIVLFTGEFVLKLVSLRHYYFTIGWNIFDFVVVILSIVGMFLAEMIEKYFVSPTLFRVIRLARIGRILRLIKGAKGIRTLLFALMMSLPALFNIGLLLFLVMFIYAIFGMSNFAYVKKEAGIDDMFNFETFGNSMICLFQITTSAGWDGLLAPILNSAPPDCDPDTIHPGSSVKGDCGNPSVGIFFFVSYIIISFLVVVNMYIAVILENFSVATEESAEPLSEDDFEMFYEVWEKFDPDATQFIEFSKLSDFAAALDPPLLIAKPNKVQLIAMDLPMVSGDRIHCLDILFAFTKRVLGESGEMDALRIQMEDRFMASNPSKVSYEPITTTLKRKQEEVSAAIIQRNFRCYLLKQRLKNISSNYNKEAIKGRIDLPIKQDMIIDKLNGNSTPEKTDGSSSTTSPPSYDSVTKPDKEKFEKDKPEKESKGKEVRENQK
# hNav1.7 = hNav1.7 (Homo sapiens, UniProt Q15858); assay type: cell-based; details: Table 26; IonWorks Quattro, use; […]; read-out: IWQ Use Nav1.7
SMILES,IC50 (hNav1.5) [nM],IC50 (hNav1.3) [nM],IC50 (hNav1.7) [nM]
"CC[C@H](C)[C@@H]1NC(=O)[C@@H]2CSSC[C@@H]3NC(=O)[C@H](C(C)C)NC(=O)[C@H](CC(C)C)NC(=O)[C@H](CC(N)=O)NC(=O)[C@@H]4CCCN4C(=O)[C@H](CCCNC(=N)N)NC(=O)[C@H](CSSC[C@H](NC(=O)[C@@H](N)CC(=O)O)C(=O)N[C@@H](CC(C)C)C(=O)NCC(=O)N[C@@H](Cc4ccccc4)C(=O)N[C@@H](CCSC)C(=O)N[C@@H](CCCNC(=N)N)C(=O)N[C@@H](CCCCN)C(=O)N2)NC(=O)[C@H](CSSC[C@@H](C(=O)N[C@@H](CCCCN)C(=O)N[C@@H](Cc2ccc(O)cc2)C(=O)N[C@@H](CC2CCCCC2)C(=O)N[C@@H](Cc2ccccc2)C(N)=O)NC(=O)[C@H](Cc2c[nH]c4ccccc24)NC(=O)[C@H](CCCCN)NC(=O)[C@H](Cc2c[nH]cn2)NC(=O)[C@H]([C@@H](C)O)NC(=O)[C@H](CCCNC(=N)N)NC(=O)[C@H](CO)NC3=O)NC(=O)[C@H](CCCCN)NC(=O)[C@H](CC(=O)O)NC(=O)[C@H](CC(N)=O)NC(=O)[C@H](CC(=O)O)NC(=O)[C@@H]2CCCN2C1=O [compound 386] (H-DCLGFMRKCIPDNDKCCRPNLVCSRTHKWCKY[Cha]F-NH2; disulfide 2-17, 9-23, 16-30)",12200,70,70
"CC[C@H](C)[C@@H]1NC(=O)[C@@H]2CSSC[C@@H]3NC(=O)[C@H](C(C)C)NC(=O)[C@H](CC(C)C)NC(=O)[C@H](CC(N)=O)NC(=O)[C@@H]4CCCN4C(=O)[C@H](CCCNC(=N)N)NC(=O)[C@H](CSSC[C@H](NC(=O)[C@@H](N)CC(=O)O)C(=O)N[C@@H](CC(C)C)C(=O)NCC(=O)N[C@@H](Cc4ccccc4)C(=O)N[C@@H](CCSC)C(=O)N[C@@H](CCCNC(=N)N)C(=O)N[C@@H](CCCCN)C(=O)N2)NC(=O)[C@H](CSSC[C@@H](C(=O)N[C@@H](CCCCN)C(=O)N[C@@H](Cc2ccc(O)cc2)C(=O)N(C)[C@@H](Cc2ccccc2)C(=O)N[C@@H](Cc2ccccc2)C(N)=O)NC(=O)[C@H](Cc2c[nH]c4ccccc24)NC(=O)[C@H](CCCCN)NC(=O)[C@H](Cc2c[nH]cn2)NC(=O)[C@H]([C@@H](C)O)NC(=O)[C@H](CCCNC(=N)N)NC(=O)[C@H](CO)NC3=O)NC(=O)[C@H](CCCCN)NC(=O)[C@H](CC(=O)O)NC(=O)[C@H](CC(N)=O)NC(=O)[C@H](CC(=O)O)NC(=O)[C@@H]2CCCN2C1=O [compound 388] (H-DCLGFMRKCIPDNDKCCRPNLVCSRTHKWCKY[NMeF]F-NH2; disulfide 2-17, 9-23, 16-30)",> 5000,1090,1280
"CC[C@H](C)[C@@H]1NC(=O)[C@@H]2CSSC[C@@H]3NC(=O)[C@H](C(C)C)NC(=O)[C@H](CC(C)C)NC(=O)[C@H](CC(N)=O)NC(=O)[C@@H]4CCCN4C(=O)[C@H](CCCNC(=N)N)NC(=O)[C@H](CSSC[C@H](NC(=O)[C@@H](N)CC(=O)O)C(=O)N[C@@H](CC(C)C)C(=O)NCC(=O)N[C@@H](Cc4ccccc4)C(=O)N[C@@H](CCSC)C(=O)N[C@@H](CCCNC(=N)N)C(=O)N[C@@H](CCCCN)C(=O)N2)NC(=O)[C@H](CSSC[C@@H](C(=O)N[C@@H](CCCCN)C(=O)N[C@@H](Cc2ccc(O)cc2)C(=O)N(C)[C@@H](Cc2c[nH]c4ccccc24)C(=O)N[C@@H](Cc2ccccc2)C(N)=O)NC(=O)[C@H](Cc2c[nH]c4ccccc24)NC(=O)[C@H](CCCCN)NC(=O)[C@H](Cc2c[nH]cn2)NC(=O)[C@H]([C@@H](C)O)NC(=O)[C@H](CCCNC(=N)N)NC(=O)[C@H](CO)NC3=O)NC(=O)[C@H](CCCCN)NC(=O)[C@H](CC(=O)O)NC(=O)[C@H](CC(N)=O)NC(=O)[C@H](CC(=O)O)NC(=O)[C@@H]2CCCN2C1=O [compound 389] (H-DCLGFMRKCIPDNDKCCRPNLVCSRTHKWCKY[NMeW]F-NH2; disulfide 2-17, 9-23, 16-30)",> 5000,290,350
"CC[C@H](C)[C@@H]1NC(=O)[C@@H]2CSSC[C@@H]3NC(=O)[C@H](C(C)C)NC(=O)[C@H](CC(C)C)NC(=O)[C@H](CC(N)=O)NC(=O)[C@@H]4CCCN4C(=O)[C@H](CCCNC(=N)N)NC(=O)[C@H](CSSC[C@H](NC(=O)[C@@H](N)CC(=O)O)C(=O)N[C@@H](CC(C)C)C(=O)NCC(=O)N[C@@H](Cc4ccccc4)C(=O)N[C@@H](CCSC)C(=O)N[C@@H](CCCNC(=N)N)C(=O)N[C@@H](CCCCN)C(=O)N2)NC(=O)[C@H](CSSC[C@@H](C(=O)N[C@@H](CCCCN)C(=O)N[C@@H](Cc2ccc(O)cc2)C(=O)N[C@@H](Cc2ccccc2)C(=O)N[C@@H](Cc2ccccc2)C(N)=O)NC(=O)[C@H](Cc2c[nH]c4ccccc24)NC(=O)[C@H](CCCCN)NC(=O)[C@H](Cc2c[nH]cn2)NC(=O)[C@H]([C@@H](C)O)NC(=O)[C@H](CCCNC(=N)N)NC(=O)[C@H](CO)NC3=O)NC(=O)[C@H](CCCCN)NC(=O)[C@H](CC(=O)O)NC(=O)[C@H](CC(N)=O)NC(=O)[C@H](CC(=O)O)NC(=O)[C@@H]2CCCN2C1=O [compound 390] (H-DCLGFMRKCIPDNDKCCRPNLVCSRTHKWCKYFF-NH2; disulfide 2-17, 9-23, 16-30)",8660,40,60
"CC[C@H](C)[C@@H]1NC(=O)[C@@H]2CSSC[C@@H]3NC(=O)[C@H](C(C)C)NC(=O)[C@H](CC(C)C)NC(=O)[C@H](CC(N)=O)NC(=O)[C@@H]4CCCN4C(=O)[C@H](CCCNC(=N)N)NC(=O)[C@H](CSSC[C@H](NC(=O)[C@@H](N)CC(=O)O)C(=O)N[C@@H](CC(C)C)C(=O)NCC(=O)N[C@@H](Cc4ccccc4)C(=O)N[C@@H](CCSC)C(=O)N[C@@H](CCCNC(=N)N)C(=O)N[C@@H](CCCCN)C(=O)N2)NC(=O)[C@H](CSSC[C@@H](C(=O)N[C@@H](CCCCN)C(=O)N[C@@H](Cc2ccc(O)cc2)C(=O)N[C@@H](CCSC)C(=O)N[C@@H](Cc2ccccc2)C(N)=O)NC(=O)[C@H](Cc2c[nH]c4ccccc24)NC(=O)[C@H](CCCCN)NC(=O)[C@H](Cc2c[nH]cn2)NC(=O)[C@H]([C@@H](C)O)NC(=O)[C@H](CCCNC(=N)N)NC(=O)[C@H](CO)NC3=O)NC(=O)[C@H](CCCCN)NC(=O)[C@H](CC(=O)O)NC(=O)[C@H](CC(N)=O)NC(=O)[C@H](CC(=O)O)NC(=O)[C@@H]2CCCN2C1=O [compound 391] (H-DCLGFMRKCIPDNDKCCRPNLVCSRTHKWCKYMF-NH2; disulfide 2-17, 9-23, 16-30)",15100,80,70
"CC[C@H](C)[C@@H]1NC(=O)[C@@H]2CSSC[C@@H]3NC(=O)[C@H](C(C)C)NC(=O)[C@H](CC(C)C)NC(=O)[C@H](CC(N)=O)NC(=O)[C@@H]4CCCN4C(=O)[C@H](CCCNC(=N)N)NC(=O)[C@H](CSSC[C@H](NC(=O)[C@@H](N)CC(=O)O)C(=O)N[C@@H](CC(C)C)C(=O)NCC(=O)N[C@@H](Cc4ccccc4)C(=O)N[C@@H](CCSC)C(=O)N[C@@H](CCCNC(=N)N)C(=O)N[C@@H](CCCCN)C(=O)N2)NC(=O)[C@H](CSSC[C@@H](C(=O)N[C@@H](CCCCN)C(=O)N[C@@H](Cc2ccc(O)cc2)C(=O)N[C@@H](Cc2c[nH]cn2)C(=O)N[C@@H](Cc2ccccc2)C(N)=O)NC(=O)[C@H](Cc2c[nH]c4ccccc24)NC(=O)[C@H](CCCCN)NC(=O)[C@H](Cc2c[nH]cn2)NC(=O)[C@H]([C@@H](C)O)NC(=O)[C@H](CCCNC(=N)N)NC(=O)[C@H](CO)NC3=O)NC(=O)[C@H](CCCCN)NC(=O)[C@H](CC(=O)O)NC(=O)[C@H](CC(N)=O)NC(=O)[C@H](CC(=O)O)NC(=O)[C@@H]2CCCN2C1=O [compound 392] (H-DCLGFMRKCIPDNDKCCRPNLVCSRTHKWCKYHF-NH2; disulfide 2-17, 9-23, 16-30)",8160,10,20
"CC[C@H](C)[C@@H]1NC(=O)[C@@H]2CSSC[C@@H]3NC(=O)[C@H](C(C)C)NC(=O)[C@H](CC(C)C)NC(=O)[C@H](CC(N)=O)NC(=O)[C@@H]4CCCN4C(=O)[C@H](CCCNC(=N)N)NC(=O)[C@H](CSSC[C@H](NC(=O)[C@@H](N)CC(=O)O)C(=O)N[C@@H](CC(C)C)C(=O)NCC(=O)N[C@@H](Cc4ccccc4)C(=O)N[C@@H](CCSC)C(=O)N[C@@H](CCCNC(=N)N)C(=O)N[C@@H](CCCCN)C(=O)N2)NC(=O)[C@H](CSSC[C@@H](C(=O)N[C@@H](CCCCN)C(=O)N[C@@H](Cc2ccc(O)cc2)C(=O)N[C@H](C(=O)N[C@@H](Cc2ccccc2)C(N)=O)c2ccccc2)NC(=O)[C@H](Cc2c[nH]c4ccccc24)NC(=O)[C@H](CCCCN)NC(=O)[C@H](Cc2c[nH]cn2)NC(=O)[C@H]([C@@H](C)O)NC(=O)[C@H](CCCNC(=N)N)NC(=O)[C@H](CO)NC3=O)NC(=O)[C@H](CCCCN)NC(=O)[C@H](CC(=O)O)NC(=O)[C@H](CC(N)=O)NC(=O)[C@H](CC(=O)O)NC(=O)[C@@H]2CCCN2C1=O [compound 393] (H-DCLGFMRKCIPDNDKCCRPNLVCSRTHKWCKY[Phg]F-NH2; disulfide 2-17, 9-23, 16-30)",7630,40,20
"CC[C@H](C)[C@@H]1NC(=O)[C@@H]2CSSC[C@@H]3NC(=O)[C@H](C(C)C)NC(=O)[C@H](CC(C)C)NC(=O)[C@H](CC(N)=O)NC(=O)[C@@H]4CCCN4C(=O)[C@H](CCCNC(=N)N)NC(=O)[C@H](CSSC[C@H](NC(=O)[C@@H](N)CC(=O)O)C(=O)N[C@@H](CC(C)C)C(=O)NCC(=O)N[C@@H](Cc4ccccc4)C(=O)N[C@@H](CCSC)C(=O)N[C@@H](CCCNC(=N)N)C(=O)N[C@@H](CCCCN)C(=O)N2)NC(=O)[C@H](CSSC[C@@H](C(=O)N[C@@H](CCCCN)C(=O)N[C@@H](Cc2ccc(O)cc2)C(=O)N[C@@H](CC(N)=O)C(=O)N[C@@H](Cc2ccccc2)C(N)=O)NC(=O)[C@H](Cc2c[nH]c4ccccc24)NC(=O)[C@H](CCCCN)NC(=O)[C@H](Cc2c[nH]cn2)NC(=O)[C@H]([C@@H](C)O)NC(=O)[C@H](CCCNC(=N)N)NC(=O)[C@H](CO)NC3=O)NC(=O)[C@H](CCCCN)NC(=O)[C@H](CC(=O)O)NC(=O)[C@H](CC(N)=O)NC(=O)[C@H](CC(=O)O)NC(=O)[C@@H]2CCCN2C1=O [compound 394] (H-DCLGFMRKCIPDNDKCCRPNLVCSRTHKWCKYNF-NH2; disulfide 2-17, 9-23, 16-30)",7940,70,360
